From ChEMBL document CHEMBL3272131, “Molecular connectivity. 6. Examination of the parabolic relationship between molecular connectivity and biological activity” (J Med Chem, 1976) come the findings set out here.

The species named for one assay is Oryctolagus cuniculus. Briefly: Induction of hypnotic activity in rabbit. The assay is classed as functional.
Another assay is filed under the species Rattus norvegicus. Briefly: Induction of hypnotic activity in rat. The assay is classed as functional.

On to `CCC1(C(C)C)C(=O)NC(=O)NC1=O` [PROBARBITAL], for which the “-log(1/MED)” value in the assay listed under Oryctolagus cuniculus is 3.3; in the assay listed under Rattus norvegicus, 3.34.
